# Values quoted from earlier work in patent publication US20090274673A1, “COMPOSITION FOR TOPICAL TREATMENT OF ACNE” (priority 2008, published 2009).
# Columns and labels:
# Saccharomyces cerevisiae = settings: against Saccharomyces cerevisiae
# protein synthesis = settings: prokaryotes versus eukaryotes
# Staphylococcus aureus = settings: agar plate diffusion
# Bacillus thuringiensis = settings: agar plate diffusion
# [1] = test system: hyper-permeable strains of Escherichia coli SC10909 and BAS847; settings: agar plate diffusion; hyper-permeable E. coli SC10909 and BAS847
# Proteus vulgaris = settings: agar plate diffusion
# [2] = test system: Staphylococcus epidermidis; settings: against Staphylococcus epidermidis
# Candida albicans = settings: against Candida albicans (a yeast-like fungus)
# HIV = settings: virus incubated with zinc acetate
# [3] = test system: species of Fusarium, Gerlacia, Penicillium, and Aspergillus
compound,measurement,setting,value
C/C(=C/C=C/C=C/C(C)C(=O)O)NC(=O)CC(O)\C(C)=C/C=C\C=C(C)\C=C\C=C/C=C/CNC(=O)C(O)CC(C)C (centres unmarked) [bacillaene],inhibitory effect,Saccharomyces cerevisiae,ineffective
same,selectivity of protein synthesis inhibition,protein synthesis,inhibiting protein synthesis only in prokaryotes and not in eukaryotes
same,inhibitory effect,Staphylococcus aureus,moderately potent
same,inhibitory effect,Bacillus thuringiensis,moderately potent
same,inhibitory effect,[1],potent
same,inhibitory effect,Proteus vulgaris,moderately potent
same,growth inhibition,Streptomyces avermitilis,inhibit the growth
same,inhibitory effect,[2],ineffective
same,inhibitory effect,Candida albicans,ineffective
CC(=O)[O-].CC(=O)[O-].[Zn+2] [zinc acetate],HIV infectivity,HIV,reduced
Iturin A,growth inhibition,[3],inhibits the growth
